Assay results reported in patent publication US10098895B2, “Treatment of symptoms related to neurodegenerative disorders through pharmacological dermal activation of cranial nerves” (GLIA, LLC, priority 2016, dated 2018).

Experiments:
[1] = tested on: Parkinson's disease symptoms; experiment: Example 2: Parkinson's disease subject, topical progesterone and testosterone; assay type: in vivo, human
From the text: A person was diagnosed with Parkinson's disease in August of 2015. Notable symptoms include both resting and action tremor of the left hand and fingers, forearm, and, to a lesser extent, the right hand and the left leg. Handwriting and computer keyboard work were difficult. They had ocular symptoms associated with the disease, including dry eye disease with moderate to severe burning and grittiness, rapid blink rate, and partial blinking. They used artificial tears constantly in an attempt to alleviate the ocular symptoms. They had not been on any Parkinson's medications. Their Parkinson's tremor followed an “on-off” cycle that correlated with their stress levels, the “on” cycle being times with low stress and few symptoms, and the “off” cycle induced by stress showing an increase in symptoms.
In late February 2017, the subject started applying single daily doses of 0.125% testosterone to the forehead and ear conchae. By the third day of treatment, the subject was tremor-free for periods of 4-6 hours, and the “on” part of the cycle was more frequent. […] The dose of testosterone was increased to 0.2% once daily in early April.
In July 2017, testosterone application was stopped after a taper to evaluate its effects. […] On Aug. 17, 2017, they reported extreme anxiety.
That same afternoon, the subject applied 0.2% testosterone to their forehead and ear conchae, and the next day reported less anxiety and more “on” cycles. By Aug. 20, 2017, they reported having stabilized on the once daily applications with a 60% or greater increase in “on” periods. On August 28, they reported going 9 hours without tremors and leg spasms. On Aug. 30, 2017, the subject was able to walk 8 miles and exercised in between. They described themself as feeling 100%.

chronic ocular GVHD = experiment: Example 5: second case of chronic ocular GVHD, tear film breakup time by Keratograph 5; assay type: in vivo, human
Method: A patient with chronic ocular GVHD complained of eye discomfort, burning, and sticking lids. […] Their first-measured tear film breakup time was 7.4 seconds, with an average breakup time of 11.39 seconds. The patient was treated with a single dose of progesterone 1% to their forehead, followed by retesting of the tear film breakup time after 30 minutes. At that time, the first-measured tear film breakup time was 21.03 seconds, with an average breakup time of 21.35 seconds. The tear meniscus height in both eyes increased over 0.6 mm following the single application of progesterone.

[2] = tested on: herpes ophthalmicus and herpes keratitis; experiment: Example 8: herpes ophthalmicus and herpes keratitis patient; assay type: in vivo, human
From the text: A patient experienced an episode of herpes ophthalmicus and herpes keratitis in September 2003, resulting in thinning melt of the left cornea, loss of vision, inflammation, neuralgia, and a rash of blisters to the left forehead, upper nose, and temple with a subsequent full left-face palsy droop, which required multiple cosmetic surgical procedures to provide some symmetry to the face and partial closure to the eyelids of the left eye.
No corneal graft to the left eye could be attempted due to recurrent thinning of the full cornea and inflammation of the vasculature. The patient was treated with ophthalmic prednisolone, topical and systemic antivirals, topical antibiotics, bandage lens, punctal plugs, and over-the-counter artificial tears and gels. This treatment regimen was continued until January 2011 when the cornea thinned to probable melt-through, necessitating corneal patch surgery. Just prior to the surgery, the patient's vision was measured at 20/2000, or finger vision.
The patient started applying 1% progesterone to their forehead twice daily just before corneal patch surgery planned for January 2011. The dose of progesterone was approximately 1 mg per application.
In September 2014, corneal tissue had sufficiently epithelialized at the perimeter to attempt a corneal graft, which was successfully completed. Progesterone 1% was applied daily to the forehead post-surgery. Within 9 months vision was restored to best correct vision pinhole 20/50.
In February 2015, the patient's visual acuity decreased as a result of the rejection of cells at the lower part of the graft. Moderate central staining continued to persist in a band where eyelids could not close. Intraocular pressure (TOP) in the left eye rose to 22 mmHg. The patient was placed on a treatment regimen that included Prednisolone Forte 6× plus Restasis for rejection 2× daily and oral valacycovir, together with mechanically taping the eyelid closed at night.
In May 2016, the patient initiated a course of twice daily dronabinol treatment, 0.5 mg each dose, to both ears. Through July, stabilization was achieved, and all other medications were discontinued. […] Visual acuity improved to 20/40.

[3] = tested on: ocular discomfort, tear film production, tremor; experiment: Summary of human examples: onset, duration of efficacy and tolerance; assay type: in vivo; conditions: progesterone USP 0.5 to 1 mg per dose, aqueous formulation, to the forehead; all human examples
From the text: Additional findings are that very small doses in contrast to what is required in systemic delivery are required once or twice daily, but the pharmacological agents must be applied in such a manner, and from specified formulations, so that they penetrate to the epidermis. It is unnecessary to go deeper than the epidermis, or to be absorbed into the blood circulation. Thus there are no blood brain barrier issues. […] The activation appears to be remote and not proximate innervation by the agents themselves. A further finding is that there has been no buildup of tolerance after months and years of use.
All human examples of neurodegenerative disorder, Parkinson's, essential tremor, herpes ophthalmicus and chronic ocular graft-versus-host disease, had ocular discomfort and signs and symptoms that were treated by low dose progesterone USP, 0.5 to 1 mg per dose, applied in an aqueous formulation to the forehead. […] The afferent nerve accessed is CN V trigeminal nerve but the efferent parasympathetic signaling was via CN VII facial nerve and a branch the greater petrosal nerve that synapses in the pterygopalatine ganglion to innervate tear film secretion. […]
Another surprising observation is that the duration of efficacy is at least 12 hours with the easily monitored parameters such as ocular comfort, tear film production, or tremor reduction.

Q: For `CC(=O)[C@H]1CC[C@H]2[C@@H]3CCC4=CC(=O)CC[C@]4(C)[C@H]3CC[C@]12C` [progesterone], which tremors ([1]; progesterone 1% to forehead) is on record?
A: The tremors was “no impact on the tremors”.

Q: What about the dry eye disease ([1]; progesterone 1% to forehead, within the first week) of the same compound?
A: The dry eye disease was “dry eye disease resolved”.

Q: And the tremor symptoms ([1]; topical progesterone additionally applied to the ear conchae)?
A: The tremor symptoms was “minimal impact on tremor symptoms”.

Q: What about the dry eye disease ([1]; topical progesterone continued during testosterone abstinence) of the same compound?
A: The dry eye disease was “continued to be well managed”.

Q: And the “duration of increased ocular comfort with each dose” value (chronic ocular GVHD; progesterone twice a day to forehead)?
A: The value was “at least 5 hours”.

Q: What about the “increase in tear meniscus height in both eyes” value (chronic ocular GVHD; single application of progesterone 1% to forehead) of the same compound?
A: Its value is “over 0.6 mm”.

Q: And the “first-measured tear film breakup time” value (chronic ocular GVHD; single dose progesterone 1% to forehead, after 30 minutes, pre-treatment 7.4 seconds)?
A: The value was 21.03 s.

Q: And the “average tear film breakup time” value (chronic ocular GVHD; single dose progesterone 1% to forehead, after 30 minutes, pre-treatment 11.39 seconds)?
A: The value was 21.35 s.

Q: What about the corneal thinning ([2]; 1% progesterone to forehead twice daily, approximately 1 mg per application, from January 2011) of the same compound?
A: The corneal thinning was “corneal thinning stabilized”.

Q: And the “best correct vision pinhole” value ([2]; Progesterone 1% daily to forehead after corneal graft, within 9 months)?
A: The value was 20/50.

Q: What about the corneal melt-through ([2]; progesterone treatment continued over two years) of the same compound?
A: Its corneal melt-through is “without corneal melt-through”.

Q: What about the “tear film breakup and meibomian glands” value ([2]; when using Progesterone 1%) of the same compound?
A: Its value is “tear film breakup was normal and meibomian glands functioned well”.

Q: What about the “duration of ocular comfort per dose” value [3] of the same compound?
A: The value was “at least 12 hours”.

Q: What about the “time to ocular comfort and tear film secretion” value [3] of the same compound?
A: The value was “within a few minutes”.
